From ChEMBL document CHEMBL1151980, “Tubulin-interactive natural products as anticancer agents” (2009) come the findings set out here.

Each structure is given as a SMILES string.

The subject of the assay is B16. The assay can be described thus: In vivo antitumor activity against mouse B16 cells assessed as increase in life span. The format is functional.

Regarding `CC(=O)O[C@H]1C(=O)[C@@]2(C)[C@H]([C@H](OC(=O)c3ccccc3)[C@]3(O)C[C@H](OC(=O)[C@H](O)[C@@H](NC(=O)c4ccccc4)c4ccccc4)C(C)=C1C3(C)C)[C@]1(OC(C)=O)CO[C@@H]1C[C@@H]2O` [PACLITAXEL], the Activity is 32%.
